The test system of assay [1] is thapsigargin-induced IL-2 production in human whole blood.
Assay [2] concerns thapsigargin-induced IFN-g production in human whole blood. The class given is cell-based.
Where [3] appears, read: read-out: Analogue Activity (IC50) WB/IL-2.
The mark [4] stands for this setting: read-out: Analogue Activity (IC50) WB/IFNg.

Where two headings read alike, the source gives them in different places. Bridge positions count the residues as written; N and C are the ends. Square brackets hold non-standard residues; d marks the D form. Peptide text beside a SMILES is read from it. 1Nal = N[C@@H](Cc1cccc2ccccc12)C(=O)O

Take `CC[C@H](C)[C@@H]1NC(=O)[C@H](CCCCN)NC(=O)[C@@H](NC(=O)[C@H](CCCCN)NC(=O)[C@@H](NC(=O)[C@H](CC(N)=O)NC(=O)[C@@H](NC(=O)[C@@H](NC(=O)[C@@H](NC(=O)CN)C(C)C)[C@@H](C)CC)[C@@H](C)CC)C(C)C)CSSC[C@@H]2NC(=O)[C@H](CCCCN)NC(=O)CNC(=O)[C@H](Cc3ccccc3)NC(=O)[C@H](CCCNC(=N)N)NC(=O)[C@H](CCSC)NC(=O)CNC(=O)[C@H](C)NC(=O)[C@H](CCCCN)NC(=O)[C@H](CCCCN)NC(=O)[C@@H]3CSSC[C@@H](C(=O)N[C@H](C(=O)N4CCC[C@H]4C(=O)N[C@@H](CCCCN)C(=O)O)[C@@H](C)O)NC(=O)[C@H](CCCNC(=N)N)NC(=O)[C@H](CSSC[C@H](NC(=O)[C@H](CCC(N)=O)NC(=O)[C@H](CCCNC(=N)N)NC(=O)[C@H](CO)NC1=O)C(=O)N[C@@H](CC(C)C)C(=O)N[C@@H](CCC(=O)O)C(=O)N1CCC[C@H]1C(=O)N3)NC(=O)[C@H](CCCCN)NC(=O)CNC(=O)[C@H](CC(N)=O)NC(=O)[C@H](CCSC)NC2=O` [H34R] (H-GVIINVKCKISRQCLEPCKKAGMRFGKCMNGKCRCTPK-OH; disulfide 8-28, 14-33, 18-35): the IC50 in assay [1] (setting [3]) was determined as 0.092 nM; in assay [2] (setting [4]), 0.108 nM.
On to `CC[C@H](C)[C@@H]1NC(=O)[C@H](CCCCN)NC(=O)[C@@H](NC(=O)[C@H](CCCCN)NC(=O)[C@@H](NC(=O)[C@H](CC(N)=O)NC(=O)[C@@H](NC(=O)[C@@H](NC(=O)[C@@H](NC(=O)CN)C(C)C)[C@@H](C)CC)[C@@H](C)CC)C(C)C)CSSC[C@@H]2NC(=O)[C@H](CCCCN)NC(=O)CNC(=O)[C@H](Cc3ccccc3)NC(=O)[C@H](CCCNC(=N)N)NC(=O)[C@H](CCSC)NC(=O)CNC(=O)[C@H](C)NC(=O)[C@H](C)NC(=O)[C@H](CCCCN)NC(=O)[C@@H]3CSSC[C@@H](C(=O)N[C@H](C(=O)N4CCC[C@H]4C(=O)N[C@@H](CCCCN)C(=O)O)[C@@H](C)O)NC(=O)[C@H](Cc4c[nH]cn4)NC(=O)[C@H](CSSC[C@H](NC(=O)[C@H](CCC(N)=O)NC(=O)[C@H](CCCNC(=N)N)NC(=O)[C@H](CO)NC1=O)C(=O)N[C@@H](CC(C)C)C(=O)N[C@@H](CCC(=O)O)C(=O)N1CCC[C@H]1C(=O)N3)NC(=O)[C@H](CCCCN)NC(=O)CNC(=O)[C@H](CC(N)=O)NC(=O)[C@H](CCSC)NC2=O` [K20A] (H-GVIINVKCKISRQCLEPCKAAGMRFGKCMNGKCHCTPK-OH; disulfide 8-28, 14-33, 18-35), for which the IC50 in assay [1] (setting [3]) and in assay [2] (setting [4]) was 0.379 nM throughout.
Take “E16K, K20D (GVIINVKCKISRQCLKPCKDAGMRFGKCMNGKCHCTPK; Definition of Artificial Sequence: Synthetic peptide)”: the IC50 in assay [1] (read-out: WB/IL-2 (IC50)) was found to be 1.58 nM; in assay [2] (read-out: WB/IFNg (IC50)), 1.32 nM.
`CC[C@H](C)[C@@H]1NC(=O)[C@H](CCCCN)NC(=O)[C@@H](NC(=O)[C@H](CCCCN)NC(=O)[C@H](CCCNC(=N)N)NC(=O)[C@H](CC(N)=O)NC(=O)[C@@H](NC(=O)[C@@H](NC(=O)[C@@H](NC(=O)CN)C(C)C)[C@@H](C)CC)[C@@H](C)CC)CSSC[C@@H]2NC(=O)[C@H](CCCCN)NC(=O)CNC(=O)[C@H](Cc3ccccc3)NC(=O)[C@H](CCCNC(=N)N)NC(=O)[C@H](CCSC)NC(=O)CNC(=O)[C@H](C)NC(=O)[C@H](CCCCN)NC(=O)[C@H](CCCCN)NC(=O)[C@@H]3CSSC[C@@H](C(=O)N[C@H](C(=O)N4CCC[C@H]4C(=O)N[C@@H](CCCCN)C(=O)O)[C@@H](C)O)NC(=O)[C@H](Cc4c[nH]cn4)NC(=O)[C@H](CSSC[C@H](NC(=O)[C@H](CCC(N)=O)NC(=O)[C@H](CCCNC(=N)N)NC(=O)[C@H](CO)NC1=O)C(=O)N[C@@H](CC(C)C)C(=O)N[C@@H](CCC(=O)O)C(=O)N1CCC[C@H]1C(=O)N3)NC(=O)[C@H](CCCCN)NC(=O)CNC(=O)[C@H](CC(N)=O)NC(=O)[C@H](CCSC)NC2=O` [V6R] (H-GVIINRKCKISRQCLEPCKKAGMRFGKCMNGKCHCTPK-OH; disulfide 8-28, 14-33, 18-35): the values for the IC50 in assay [1] (setting [3]) and in assay [2] (setting [4]) were 0.084 nM and 0.115 nM, respectively.
Take `CC[C@H](C)[C@@H]1NC(=O)[C@H](CCCCN)NC(=O)[C@@H](NC(=O)[C@H](CCCCN)NC(=O)[C@@H](NC(=O)[C@H](CC(N)=O)NC(=O)[C@@H](NC(=O)[C@@H](NC(=O)[C@@H](NC(=O)CN)C(C)C)[C@@H](C)CC)[C@@H](C)CC)C(C)C)CSSC[C@@H]2NC(=O)[C@H](CCCCN)NC(=O)CNC(=O)[C@H](Cc3ccccc3)NC(=O)[C@H](CCCNC(=N)N)NC(=O)[C@H](CCSC)NC(=O)CNC(=O)[C@H](C)NC(=O)[C@H](CCCCN)NC(=O)[C@H](CCCCN)NC(=O)[C@@H]3CSSC[C@@H](C(=O)N[C@H](C(=O)N4CCC[C@H]4C(=O)N[C@@H](CCCCN)C(=O)O)[C@@H](C)O)NC(=O)[C@H](Cc4c[nH]cn4)NC(=O)[C@H](CSSC[C@H](NC(=O)[C@H](CCC(N)=O)NC(=O)[C@H](CCCNC(=N)N)NC(=O)[C@H](CO)NC1=O)C(=O)N[C@@H](CC(C)C)C(=O)N[C@@H](Cc1cccc4ccccc14)C(=O)N1CCC[C@H]1C(=O)N3)NC(=O)[C@H](CCCCN)NC(=O)CNC(=O)[C@H](CC(N)=O)NC(=O)[C@H](CCSC)NC2=O` [E16Nal] (H-GVIINVKCKISRQCL[1Nal]PCKKAGMRFGKCMNGKCHCTPK-OH; disulfide 8-28, 14-33, 18-35): the IC50 in assay [1] (setting [3]) stood at 1.02 nM; in assay [2] (setting [4]), 1.51 nM.
Turning to “GVIINVKCKISRQCLEACKKAGMRFGKCMNGKCHCTPK [Ala-17 (SEQ ID No: 1414)]”, the IC50 in assay [1] (read-out: Average IC50 IL-2) and in assay [2] (read-out: Average IC50 IFNg) was 0.173 nM each time.
With `CC[C@H](C)[C@@H]1NC(=O)[C@H](CCCCN)NC(=O)[C@@H](NC(=O)[C@H](CCCCN)NC(=O)[C@H](C)NC(=O)[C@H](CC(N)=O)NC(=O)[C@@H](NC(=O)[C@@H](NC(=O)[C@@H](NC(=O)CN)C(C)C)[C@@H](C)CC)[C@@H](C)CC)CSSC[C@@H]2NC(=O)[C@H](CCCCN)NC(=O)CNC(=O)[C@H](Cc3ccccc3)NC(=O)[C@H](CCCNC(=N)N)NC(=O)[C@H](CCSC)NC(=O)CNC(=O)[C@H](C)NC(=O)[C@H](CCCCN)NC(=O)[C@H](CCCCN)NC(=O)[C@@H]3CSSC[C@@H](C(=O)N[C@H](C(=O)N4CCC[C@H]4C(=O)N[C@@H](CCCCN)C(=O)O)[C@@H](C)O)NC(=O)[C@H](Cc4c[nH]cn4)NC(=O)[C@H](CSSC[C@H](NC(=O)[C@H](CCC(N)=O)NC(=O)[C@H](CCCNC(=N)N)NC(=O)[C@H](CO)NC1=O)C(=O)N[C@@H](CC(C)C)C(=O)N[C@@H](CCC(=O)O)C(=O)N1CCC[C@H]1C(=O)N3)NC(=O)[C@H](CCCCN)NC(=O)CNC(=O)[C@H](CC(N)=O)NC(=O)[C@H](CCSC)NC2=O` [V6A] (H-GVIINAKCKISRQCLEPCKKAGMRFGKCMNGKCHCTPK-OH; disulfide 8-28, 14-33, 18-35), the IC50 in assay [1] (setting [3]) is 0.0733 nM; in assay [2] (setting [4]) it was 0.0805 nM.
For the compound `CC[C@H](C)[C@@H]1NC(=O)[C@H](CCCCN)NC(=O)[C@@H](NC(=O)[C@H](CCCCN)NC(=O)[C@@H](NC(=O)[C@H](CC(N)=O)NC(=O)[C@@H](NC(=O)[C@@H](NC(=O)[C@@H](NC(=O)CN)C(C)C)[C@@H](C)CC)[C@@H](C)CC)C(C)C)CSSC[C@@H]2NC(=O)[C@H](CCCCN)NC(=O)CNC(=O)[C@H](Cc3ccccc3)NC(=O)[C@H](CCCNC(=N)N)NC(=O)[C@H](Cc3cccc4ccccc34)NC(=O)CNC(=O)[C@H](C)NC(=O)[C@H](CCCCN)NC(=O)[C@H](CCCCN)NC(=O)[C@@H]3CSSC[C@@H](C(=O)N[C@H](C(=O)N4CCC[C@H]4C(=O)N[C@@H](CCCCN)C(=O)O)[C@@H](C)O)NC(=O)[C@H](Cc4c[nH]cn4)NC(=O)[C@H](CSSC[C@H](NC(=O)[C@H](CCC(N)=O)NC(=O)[C@H](CCCNC(=N)N)NC(=O)[C@H](CO)NC1=O)C(=O)N[C@@H](CC(C)C)C(=O)N[C@@H](CCC(=O)O)C(=O)N1CCC[C@H]1C(=O)N3)NC(=O)[C@H](CCCCN)NC(=O)CNC(=O)[C@H](CC(N)=O)NC(=O)[C@H](CCSC)NC2=O` [M23Nal] (H-GVIINVKCKISRQCLEPCKKAG[1Nal]RFGKCMNGKCHCTPK-OH; disulfide 8-28, 14-33, 18-35), the IC50 in assay [1] (setting [3]) is 0.581 nM; in assay [2] (setting [4]), 1.11 nM.
In the case of `CC[C@H](C)[C@H](NC(=O)[C@H](C)NC(=O)CN)C(=O)N[C@H](C(=O)N[C@@H](CC(N)=O)C(=O)N[C@H](C(=O)N[C@@H](CCCCN)C(=O)N[C@H]1CSSC[C@@H]2NC(=O)[C@H](CCCCN)NC(=O)CNC(=O)[C@H](Cc3ccccc3)NC(=O)[C@H](CCCNC(=N)N)NC(=O)[C@H](CCSC)NC(=O)CNC(=O)[C@H](C)NC(=O)[C@H](CCCCN)NC(=O)[C@H](CCCCN)NC(=O)[C@@H]3CSSC[C@@H](C(=O)N[C@H](C(=O)N4CCC[C@H]4C(=O)N[C@@H](CCCCN)C(=O)O)[C@@H](C)O)NC(=O)[C@H](Cc4c[nH]cn4)NC(=O)[C@H](CSSC[C@H](NC(=O)[C@H](CCC(N)=O)NC(=O)[C@H](CCCNC(=N)N)NC(=O)[C@H](CO)NC(=O)[C@H]([C@@H](C)CC)NC(=O)[C@H](CCCCN)NC1=O)C(=O)N[C@@H](CC(C)C)C(=O)N[C@@H](CCC(=O)O)C(=O)N1CCC[C@H]1C(=O)N3)NC(=O)[C@H](CCCCN)NC(=O)CNC(=O)[C@H](CC(N)=O)NC(=O)[C@H](CCSC)NC2=O)C(C)C)[C@@H](C)CC` [V2A] (H-GAIINVKCKISRQCLEPCKKAGMRFGKCMNGKCHCTPK-OH; disulfide 8-28, 14-33, 18-35), the IC50 in assay [1] (setting [3]) worked out at 0.0884 nM; in assay [2] (setting [4]), 0.104 nM.
Turning to “GVIIAVKCKISRQCLEPCKKAGMRFGKCMNGKCHCTPK [Ala-5 (SEQ ID No: 1404)]”, the IC50 turned out to be 0.0679 nM in assay [1] (read-out: Average IC50 IL-2) and 0.067 nM in assay [2] (read-out: Average IC50 IFNg).

These data come from patent publication US7820623B2 (priority 2006, dated 2010).
